For one data set, the system named is HaCaT cells. As to the kind of experiment: DCF-DA assay (intracellular ROS after H2O2). It is filed as cell-based, human. The conditions noted are these: H2O2 treatment, 24 h; for inhibition at 100 µM: Homo sapiens, 100 μΜ, read-out: DCFDA Assay, % (100 μΜ). From the text:
In the setting of evaluating bioactive compounds in terms of antioxidant capacity in various cell lines, DCF-DA is the most widely used assay for the detection of intracellular H2O2 and oxidative stress. DCF-DA is cell-permeable and is hydrolyzed intracellularly to the DCFH carboxylate anion, which is retained in the cell.
DCFDA is a fluorescent dye that measures the activity of hydroxyl radicals, peroxyl radicals, and other reactive oxygen species (ROS) within the cell. The DCFDA analysis protocol is based on the diffusion of DCFDA into the cell. It is then deacetylated from cellular esterases to a non-fluorescent compound, which is later oxidized by ROS to 2’,7’ -dichlorofluoroscein (DCF). The produced compound (DCF) is fluorescent and is detected by fluorescence spectroscopy at 485/535 nm (excitation/emission).
For the experimental procedure a standard solution of DCF-DA (20mM) in DMSO was prepared which was stored in the dark (−20 °C) until use. In a 96-well plate, cells were cultured to a density of 3 × 10^4 cells/well.
The cells remained in the incubator (37 °C, 5% CO2) for 24 h, after which an appropriate amount of H2O2 (2 mM) was added and the dish was returned for incubation for the next 2 h. This was followed by the addition of the test substances (100μM) and incubation for 24 h. At the end of the treatment time, all wells were washed with PBS, and DCF-DA solution (working concentration: 10 μM) (in 200 μL of nutrient) was added and incubated for 40 min.
After incubation, the medium with the DCF-DA was removed and replaced with FBS-free DMEM. The measurement of the […] was made immediately after that in a plate reader at 495/530 nm (excitation/emission).
All samples were tested in triplicates, against a control (without effects), blank (without cells), and positive control (standard 100 μM Ascorbic acid solution was used).
The percentage of antioxidant capacity (%) was calculated according to the following Equation (6) evaluating the presence of ROS [42]:(6) % AI=( OD Sample 530 nm−Blank)−(OD Control 530 nm−Blank)/(OD Control 530 nm−Blank) × 100

Data set [1] in a line: ABTS radical scavenging assay. The conditions noted are these: 6 min. The procedure:
The ABTS radical cation scavenging assay is a decolorization assay frequently used as an antioxidant activity estimation protocol. […] The absorbance is measured at 734 nm and the antioxidant capacity is compared to a standard antioxidant solution, such as ascorbic acid.
For the evaluation of antioxidant activity, the scavenging capacities of all samples were measured via the ABTS assay, as previously described by Kontogiorgis et al. with some modifications. Briefly, an ethanolic standard ABTS solution (7 mM) was prepared by the addition of ABTS salt and potassium persulfate. […] Each sample was diluted in DMSO and tested in triplicate. The tested mixture contained 10–20 µL of sample and 990–980 µL of the ABTS solution, for a total volume of 1 ml. Blank samples contained equal amounts of DMSO instead of the coumarin analogues, and ascorbic acid was used as a reference sample for the final evaluation of the ABTS scavenging capacity. All mixtures were stored at room temperature to allow decolorization and measured after 6 min. The percentage reduction of the ABTS radical was evaluated according to the following Equation (3):(3) % Reduction=Control OD (mean)−Sample OD (mean)/Control OD (mean)×100

Data set [2] is described as follows: IAM chromatography (IAM.PC.DD.2 column) and estimated human oral absorption. The data set is classed as in vitro ADME. The conditions noted are these: for %HOA estimated human oral absorption: Equation (1) from logkw and physicochemical properties; for logkw (IAM retention factor): pH 7.40, IAM.PC.DD.2, intercept at pure aqueous phase. The procedure: The immobilized artificial membrane (IAM) chromatographic behavior of the 25 novel coumarin derivatives was studied. IAM stationary phases consisting of monolayers of phospholipids (e.g., phosphatidylcholine, PC) immobilized on a propylamine–silica support can simulate interactions of chemicals with cell membranes.
Using an IAM.PC.DD2 column (Regis Technologies) as the stationary phase with PBS as the mobile phase at pH = 7.40, and a flow rate of 3 mL/min in the presence of acetonitrile fractions (C%) of 10%, 15%, 20%, 25%, and 30%, a logkC% value was obtained via the retention time for each concentration of CH3CN. Retention factors were then used to plot logkC% as a function of acetonitrile fraction. The intercept of the linear regression corresponds to the logkw, corresponding to pure aqueous phase.
(1) % HOA=100/1+10^−(2.17+0.88*logkw−0.006*MW−0.83*A−0.53*F^*++1.18*F^*−)
The physicochemical and biomimetic properties of the new coumarin analogues were studied using liquid chromatography (HPLC) in 220–230 nm Two types of chromatographic columns were used: (i) immobilized artificial membrane (IAM) ([…].PC.DD.2, Regis Technologies) column and (ii) human serum albumin (HSA) (CHIRAL PAK) column.
The training set consisted of 25 neutral and slightly acidic compounds. Their IAM retention factors were measured at pH 7.40 on a IAM.PC.DD.2 column. The mobile phase consisted of acetonitrile solvent (CH3CN) in various concentrations (10%, 15%, 20%, 25%, 30%) and a flow rate of 3 mL/min was selected. Their HSA retention factors were measured at pH 7.00 on HSA column. The mobile phase consisted of acetonitrile solvent (CH3CN) in 10% concentration and a flow rate of 1 mL/min was selected.
The different pH values (7.00 for HSA and 7.40 for IAM) were measured with an electronic pH meter MP125 and were achieved by preparing suitable buffers of phosphates and chlorides (0.12 g KH2PO4, 0.72 g Na2HPO4·2H2O, 4.00 g NaCl and 0.10 g KCl). Sodium citrate solution was used to determine the dead time, which was deducted from the results at the end of measurements. The elution time of each coumarin analogue was measured at least three times. Retention times were converted into logk values, which represent the logarithm of the retention indexes, using Equation (8). (8) logk=log(tr−t0/t0) where tr is the retention time of the coumarin derivative and t0 is the dead time.

Data set [3] is described as follows: Inhibition of AAPH induced linoleic acid oxidation (lipid peroxidation). An excerpt: AAPH induced linoleic acid oxidation has been developed as a quick and reliable antioxidant activity assay. It is based on the inhibition of linoleic acid oxidation, initiated by the thermal free radical producer 2,2′-azobis(2-amidinopropane) dihydrochloride (AAPH), providing a measure of how efficiently antioxidants protect against lipid oxidation in vitro. Oxidation of exogenous linoleic acid by AAPH is followed by UV spectrophotometry at 234 nm in a highly diluted sample [38].
For the reference sample in a UV cuvette, 10 μL of the test sample (100 μM diluted in DMSO), 10 μL linoleic acid (LA) (16 mM), and buffer solution (pH 7.4) were added to a final volume of 1ml. For the measurement sample, in a UV cuvette, 10 μL of test sample, 50 μL AAPH (40 mM), 10 μL LA, and buffer solution were added to a final volume of 1 mL. Standard and blank samples were prepared in the same way using DMSO (solvent) instead of the tested coumarin analogues. The absorbance was measured after 2 min at 37 °C at 234 nm. Results were obtained via the following Equation (5):(5) %Inhibition=(Standard−Blank)−(Reference Sample−Measurement Sample)/(Standard−Blank) × 100

The IC50 is the midpoint of a concentration-inhibition curve. The low end stands for inhibition by little substance, the high end for a need for much substance. Consider `CC(=O)Oc1cccc2oc(=O)c(-c3ccccc3Cl)c(C)c12` [Compound 3a, 5-acetyloxy-3-(2-chlorophenyl)-4-methyl-chromen-2-one], for which, in the data set with HaCaT cells, the inhibition at 100 µM was 33.8%. Further, in data set [1], the “ABTS^•+ % (100 μΜ)” value is listed as “no”. In data set [2], the “%HOA estimated human oral absorption” value was 100% and the “logkw (IAM retention factor)” value is on record as 3.58. This compound also gave an IC50 in data set [3] of 71.9 µM.
Take `CC(=O)Oc1cccc2oc(=O)c(-c3cccc(Cl)c3)c(C)c12` [Compound 3b, 5-acetyloxy-3-(3-chlorophenyl)-4-methyl-chromen-2-one]: the inhibition at 100 µM with HaCaT cells was found to be 56.9%. Moreover, the “ABTS^•+ % (100 μΜ)” value in data set [1] is listed as 1.9%. Besides, in data set [2], the “%HOA estimated human oral absorption” value is 99.8% and the “logkw (IAM retention factor)” value is reported as 2.88. The same compound showed an IC50 in data set [3] of 91.5 µM.
Regarding `CC(=O)Oc1cccc2oc(=O)c(-c3ccc(Cl)cc3)c(C)c12` [Compound 3c, 5-acetyloxy-3-(4-chlorophenyl)-4-methyl-chromen-2-one], the “DCFDA Assay, % (100 μΜ)” value in the data set on HaCaT cells is “no”. Further, the “ABTS^•+ % (100 μΜ)” value in data set [1] came to 15.0%. Further, in data set [2], the “%HOA estimated human oral absorption” value was 99.9% and the “logkw (IAM retention factor)” value is 3.05. In data set [3], the IC50 was 75.1 µM.
Regarding `CC(=O)Oc1cccc2oc(=O)c(-c3ccccc3F)c(C)c12` [Compound 3d, 5-acetyloxy-3-(2-fluorophenyl)-4-methyl-chromen-2-one], in the data set with HaCaT cells, the inhibition at 100 µM was found to be 22.4%. The “ABTS^•+ % (100 μΜ)” value in data set [1] is recorded as “no”. For the same compound, in data set [2], the “%HOA estimated human oral absorption” value was 99.7% and the “logkw (IAM retention factor)” value is recorded as 2.56.
For `CC(=O)Oc1cccc2oc(=O)c(-c3cccc(F)c3)c(C)c12` [Compound 3e, 5-acetyloxy-3-(3-fluorophenyl)-4-methyl-chromen-2-one], the “DCFDA Assay, % (100 μΜ)” value with HaCaT cells is on record as “no”. In addition, the “ABTS^•+ % (100 μΜ)” value in data set [1] was 2.0%. In data set [2], the “%HOA estimated human oral absorption” value is given as 99.7% and the “logkw (IAM retention factor)” value is recorded as 2.47. Further, the “AAPH % inhibition (100 μΜ)” value in data set [3] is “inactive and no”.
As for `CC(=O)Oc1cccc2oc(=O)c(-c3ccc(F)cc3)c(C)c12` [Compound 3f, 5-acetyloxy-3-(4-fluorophenyl)-4-methyl-chromen-2-one], the inhibition at 100 µM with HaCaT cells turned out to be 100%. In addition, the “ABTS^•+ % (100 μΜ)” value in data set [1] was “no”. Also, in data set [2], the “%HOA estimated human oral absorption” value was 99.7% and the “logkw (IAM retention factor)” value is 2.52.
With `CC(=O)Oc1cccc2oc(=O)c(-c3cccc(Br)c3)c(C)c12` [Compound 3g, 5-acetyloxy-3-(3-bromophenyl)-4-methyl-chromen-2-one], the inhibition at 100 µM with HaCaT cells came to 45.5%. Further, the “ABTS^•+ % (100 μΜ)” value in data set [1] is given as 2.8%. In data set [2], the “%HOA estimated human oral absorption” value was 100.0% and the “logkw (IAM retention factor)” value is 4.77. In data set [3], this compound came in with an IC50 of 50.7 µM.
As for `CC(=O)Oc1ccc(-c2c(C)c3ccccc3oc2=O)cc1` [Compound 3h, 3-(4-acetyloxyphenyl)-4-methyl-chromen-2-one], the “DCFDA Assay, % (100 μΜ)” value in the data set on HaCaT cells is reported as “no”. Moreover, the “ABTS^•+ % (100 μΜ)” value in data set [1] is “no”. In data set [2], the “%HOA estimated human oral absorption” value is reported as 99.7% and the “logkw (IAM retention factor)” value is 2.48. Also, the midpoint of inhibition in data set [3], the IC50, lay at 70.7 µM.
Regarding `CC(=O)Oc1ccc(-c2c(C)c3cc(Br)ccc3oc2=O)cc1` [Compound 3i, 3-(4-acetyloxyphenyl)-6-bromo-4-methyl-chromen-2-one], the inhibition at 100 µM with HaCaT cells was 80.9%. In data set [1], the “ABTS^•+ % (100 μΜ)” value is “no”. In addition, in data set [2], the “%HOA estimated human oral absorption” value is listed as 99.8% and the “logkw (IAM retention factor)” value is reported as 3.28. Further, inhibition in data set [3] was half-maximal at 70.7 µM (IC50).
Take `CC(=O)Oc1ccc(-c2c(C)c3cc(Cl)ccc3oc2=O)cc1` [Compound 3j, 3-(4-acetyloxyphenyl)-6-chloro-4-methyl-chromen-2-one]: the inhibition at 100 µM in the data set on HaCaT cells came to 9%. Besides, in data set [1], the “ABTS^•+ % (100 μΜ)” value was “no”. Further, in data set [2], the “%HOA estimated human oral absorption” value is reported as 99.9% and the “logkw (IAM retention factor)” value is on record as 3.06. Further, in data set [3], the “AAPH % inhibition (100 μΜ)” value is listed as “no”.
With `CC(=O)Oc1ccc(-c2c(C)c3cc(Br)cc(Br)c3oc2=O)cc1` [Compound 3k, 3-(4-acetyloxyphenyl)-6,8-dibromo-4-methyl-chromen-2-one], in the data set with HaCaT cells, the “DCFDA Assay, % (100 μΜ)” value is listed as “no”. Besides, the “ABTS^•+ % (100 μΜ)” value in data set [1] is reported as “no”. Further, in data set [2], the “%HOA estimated human oral absorption” value is 99.9% and the “logkw (IAM retention factor)” value was 3.91. Also, in data set [3], the “AAPH % inhibition (100 μΜ)” value was “inactive and no”.
Take `CC(=O)Oc1ccc(-c2c(C)c3ccccc3oc2=O)cc1OC(C)=O` [Compound 3l, 3-(4,5-diacetyloxyphenyl)-4-methyl-chromen-2-one]: in the data set on HaCaT cells, the “DCFDA Assay, % (100 μΜ)” value is “no”. Also, the “ABTS^•+ % (100 μΜ)” value in data set [1] stood at 2.8%. In data set [2], the “%HOA estimated human oral absorption” value is listed as 99.4% and the “logkw (IAM retention factor)” value is on record as 2.43. Moreover, the IC50 in data set [3] was found to be 85.5 µM.
As for `Cc1c(-c2ccc(O)cc2)c(=O)oc2c(Br)cc(Br)cc12` [Compound 4k, 6,8-dibromo-3-(4-hydroxyphenyl)-4-methyl-chromen-2-one], the “DCFDA Assay, % (100 μΜ)” value in the data set on HaCaT cells was “no”. Moreover, the “ABTS^•+ % (100 μΜ)” value in data set [1] amounted to 27.8%. The compound further returned an IC50 in data set [3] of 36.9 µM.
